In patent US20110009332A1, “Therapeutic Treatment Of Wounds” (SOUTHWEST RESEARCH INSTITUTE, priority 2009, published 2011):
Where a SMILES comes first, the peptide text is derived from it. The star is where a group is joined. Cbz = O=C(OCc1ccccc1)*; OtBu = CC(C)(C)O*

Tested on: TGF-β1
Assay: TGF-β1 gene expression (qPCR, normalized over 18S) in human dermal fibroblasts
Assay type: cell-based
Procedure: An examination of gene expression of TFG-β1 was conducted using a number of proteasome inhibitors including, proteasome inhibitor-1, curcumin, MG-132 and bortezomib. Human neonatal dermal fibroblasts (AllCells, Catalog No. HN006001) were maintained in Dulbecco's modified Eagle's medium (DMEM) supplemented with 10% fetal bovine serum. Early passage cells were plated at 2×10^4 cells/cm^2 and grown in humidified 5% CO2 at 37° C. for 24 hours. Spent media was replaced the following day with assay media including Proteasome inhibitor-1 was added in DMEM at 1 μM and 0.1 μM. Untreated cells were used as the control group. For the human osteogenesis PCR array, the experimental group was treated only at 1 μM. In addition, in separate trials, spent media was replace by assay media of curcumin added in DMEM at 10 μM and 100 μM, MG-132 in DMEM at 0.1 μM and 1 μM, and bortezomib in DMEM at 0.1 μm and 1 μM.
Phenol-chloroform extraction was performed to isolate the total RNA for real time polymerase chain reaction array. More specifically, the total RNA was prepared using TRI REAGENT (Ambion, product number 9738), wherein the total RNA was obtained from the human neonatal dermal fibroblasts. Note that isolation was performed as per the instructions provided with the TRI REAGENT. The RNA was used for subsequent quantitative polymerase chain reaction (qPRC) gene expression of TFG-β1 measured using hydrolysis probes (TAQMAN probes available from Applied Biosystems) as described further below.
Concentration and integrity of the obtained total RNA was assessed by absorbance in a spectrophotometer at 260 nm and 280 nm and by electrophoresis in 1% agarose with formaldehyde loading dye. For TAQMAN gene expression assays, cDNA was synthesized from 2 μg of total RNA using the High Capacity cDNA Reverse Transcription Kit (Applied Biosystems, product number 4368814), again following the protocol supplied with the kit. The resulting cDNA was diluted 1:10.
For TAQMAN gene expression, gene-specific fluorescent labeled TAQMAN primers for FAM-TFG-β1 (Applied Biosystems, product number Hs00998130.m1) and TAQMAN reference VIC-18S ribosomal RNA (Applied Biosystems, product number 4310893E) were used to target the gene of interest. A cocktail of universal master mix (Applied Biosystems, product number 4369016) was prepared individually for both set of primers which contained Taq Polymerase, dNTPs, and buffer. Template cDNA's were added separately to respective individual wells in triplicate samples. PCR was performed on StepOne Plus Real Time System instrument (Applied Biosystems). The amplification program consisted of 1 cycle of 95° C. with 10 minute hold (hot start) followed by 50 cycles of 95° C. with 15 second annealing hold and 1 minute 60° C. specified acquisition hold.
For human osteogenisis PCR array, total RNA was prepared using silica matrix purification using RNEASY MINI KIT (Qiagen, product number 74101) according to the manufacturer's recommendations. cDNA was synthesized from 1 μg of purified DNA-free RNA accordingly to RT^2First Strand Kit (SABiosciences, C-03). The resulting cDNA was diluted 1:30 and amplified. The procedure for the PCR array using real-time PCR is based on the RT^2 Profiler PCR array system instructions for Human Osteogenesis (SABiosciences, product number PAHS-026C). A cocktail reaction mix was setup as recommended by the PCR manufacturer (SABiosceiences, product number PA-012). PCR was performed using the same temperature parameters as used with the StepOne Plus Real Time System instrument. The Ct value of endogenous reference gene (i.e. 18s) was used to control for input RNA and then used to normalize target gene (i.e. TFG-β1) tested from the same cDNA sample ([…]), and then calibrated to an internal reference sample ([…]). Change in gene expression was determined by the expression 2̂-([…]). […]

[1] = 0.1 μM inhibitor, FIG. 30, non-treated 1.50 (MG132) / 1.43 (bortezomib)
[2] = 1 μM inhibitor, FIG. 30, non-treated 1.50 (MG132) / 1.43 (bortezomib)

| Compound | TFG-β1/18 mRNA levels [1] | TFG-β1/18 mRNA levels [2] | other results |
| --- | --- | --- | --- |
| CC(C)C[C@@H](C=O)NC(=O)[C@H](CC(C)C)NC(=O)[C@H](CC(C)C)NC(=O)OCc1ccccc1 [MG132] (Cbz-Leu-Leu-Leu-aldehyde) | 2.12 a.u. | 1.49 a.u. | – |
| CC[C@H](C)[C@H](NC(=O)OCc1ccccc1)C(=O)N[C@@H](CCC(=O)OC(C)(C)C)C(=O)N[C@@H](C)C(=O)N[C@H](C=O)CC(C)C [PS-1, Z-Ile-Glu(OBu^t)-Ala-Leu-H] (Cbz-IE(OtBu)AL-aldehyde) | – | – | TFG-β1/18 mRNA levels (0.1 μM PS-1, FIG. 28, nontreated 1.15, decrease relatively statistically insignificant): ~1.03 a.u.; TFG-β1/18 mRNA levels (1.0 μM PS-1, FIG. 28, nontreated 1.15, decrease relatively statistically insignificant): ~1.11 a.u. |
| CC(C)C[C@H](NC(=O)[C@H](Cc1ccccc1)NC(=O)c1cnccn1)B(O)O [bortezomib] | 1.99 a.u. | 1.97 a.u. | – |
| COc1cc(/C=C/C(=O)CC(=O)/C=C/c2ccc(O)c(OC)c2)ccc1O [curcumin] | – | – | TFG-β1/18 mRNA levels (10 μM curcumin, FIG. 29, non-treated 1.15): 0.644 a.u.; TFG-β1/18 mRNA levels (100 μM curcumin, FIG. 29, non-treated 1.15): 1.53 a.u. |
